According to patent publication US20250241892A1, “5-METHOXY-N,N-[…][…] THE TREATMENT OF PSYCHOMOTOR RETARDATION” (GH RESEARCH IRELAND LIMITED, priority 2022, published 2025):

System: patients with postpartum depression (PPD)
Test: Clinical trial of inhaled 5-MeO-DMT in postpartum depression
Details: 1 patient
Experimental: The single-arm, open-label clinical trial will involve 15 adult female patients with clinically diagnosed postpartum depression (PPD).
The second dose (12 mg) will only be administered if: • a. A peak experience (total score of ⋅75) has not been achieved following the 6 mg dose, and • b. The 6 mg dose was safe and well-tolerated according to the investigator, • c. Any psychoactive effects (PsE) of the prior dose have subsided, and • d. Pre-dose vital parameters and forced expiratory volume in one second (FEV1) are in normal range, or if outside of the normal range, are not clinically significant according to the investigator. • 3. Similarly, a third dose (18 mg) will only be administered if: • a. A peak experience (total score of ⋅75) has not been achieved following the 12 mg dose, and • b. The 12 mg dose was safe and well-tolerated according to the investigator, and • c. Any PsE of the prior dose have subsided, and • d. Pre-dose vital parameters and forced expiratory volume in one second (FEV1) are in normal range, or if outside of the normal range, are not clinically significant according to the investigator.
The patients will be assessed for a peak psychedelic experience (based on a patient-scored visual analogue scale, the PE scale), sedation, and other endpoints after dosing. Follow-up visits are planned for Day 1, and Day 7 after the dosing day.
The following criteria must be met by all patients considered for clinical trial participation: • 1. Is female and in the age range between 18 and 45 years (inclusive) at screening. • 2. Has a body mass index (BMI) in the range of 18.5 and 35 kg/m^2 (inclusive) at screening. • 3. Meets the trial criteria for PPD as assessed by a trial psychiatrist or registered psychologist: • a. Diagnosis of Major Depressive Disorder without psychotic features, confirmed by the Mini-International Neuropsychiatric Interview (MINI), with peri-partum onset that began no earlier than gestation and no later than the first 4 weeks postpartum. • b. Has a Montgomery-Åsberg Depression Rating Scale (MADRS) total score of equal to or greater than 28 at screening and pre-dose on Day 0. • 6. […] Patients must have a negative pregnancy test at screening and on the pre-test day (Day −1). • 5. Is willing to delay start of other antidepressant or anxiety medication until after the end of the trial at Day 7 and agrees to keep any psychotherapy unchanged during the trial.
A potential patient who meets any of the following key exclusion criteria will be excluded from participation in this trial: • 1. Has, based on history, psychiatric assessment, and evaluation of the MINI, a current or prior diagnosis of bipolar disorder, a manic or hypomanic episode, a psychotic disorder, Major Depressive Disorder (MDD) or other mood disorder with psychotic features, obsessive compulsive disorder, post-traumatic stress disorder (PTSD), autism spectrum disorder, borderline personality disorder, schizophrenia, delusional disorder, paranoid personality disorder, schizoaffective disorder, clinically significant intellectual disability, or any other psychiatric comorbidity that renders the patient unsuitable for the trial according to the investigator's judgment. • 2. Has one or more first or second degree relatives with a current or previously diagnosed bipolar disorder, psychotic disorder or other mood disorder (including MDD) with psychotic features. • 3. Is in the judgement of a trial psychiatrist or registered psychologist, at significant risk for suicide based on history, psychiatric assessment, and evaluation of suicidal ideation and suicidal behaviour based on the Columbia-Suicide Severity Rating Scale (C-SSRS). • 4. Has taken anti-depressive medication within 14 days or 5 half-lives (whichever is longer) prior to dosing (exception: within the last 5 weeks in the case of fluoxetine). • 5.

With COc1ccc2[nH]cc(CCN(C)C)c2c1 [5-MeO-DMT] the “ECG (3 hours), safety laboratory analyses (7 days), CADSS (3 hours, 1 day, 7 days)” value was “unremarkable”, the “Reported adverse events (cramping left abdominal pain and headache, Day 0)” value was “mild, short-lasting and resolved spontaneously” and the “Standard criteria for MADRS remission (MADRS total score equal or less than 10)” value was “fulfilled”. The “Standard criteria for MADRS response (at least 50% improvement from baseline)” value was “fulfilled”, the “Tolerability of the inhalation procedure” value was “well tolerated with no inhalation-related adverse events” and the “MADRS Apparent sadness improvement” value (2 hr vs baseline) was 5. For the same compound, the “MADRS Concentration Difficulties improvement” value (2 hr vs baseline) was 0, the “MADRS Inability to Feel improvement” value (2 hr vs baseline) was 3 and the “MADRS Inner Tension improvement” value (2 hr vs baseline) was 5. The “MADRS Lassitude improvement” value (2 hr vs baseline) was 3, the “MADRS Pessimistic Thoughts improvement” value (2 hr vs baseline) was 4 and the “MADRS Reduced Sleep improvement” value (2 hr vs baseline) was 0. For the same compound, the “MADRS Reduced appetite improvement” value (2 hr vs baseline) was 0, the “MADRS Reported sadness improvement” value (2 hr vs baseline) was 4 and the “MADRS Suicidal Thoughts improvement” value (2 hr vs baseline) was 0. For the same compound, the “MADRS Concentration Difficulties score” value (2 hr, baseline 0) was 0, the “MADRS Reduced appetite score” value (2 hr, baseline 0) was 0 and the “MADRS Suicidal Thoughts score” value (2 hr, baseline 0) was 0. For the same compound, the “MADRS Inability to Feel score” value (2 hr, baseline 3) was 0, the “MADRS Lassitude score” value (2 hr, baseline 3) was 0 and the “MADRS Pessimistic Thoughts score” value (2 hr, baseline 4) was 0. The “MADRS Reported sadness score” value (2 hr, baseline 4) was 0, the “MADRS Apparent sadness score” value (2 hr, baseline 5) was 0 and the “MADRS Inner Tension score” value (2 hr, baseline 5) was 0. For the same compound, the “MADRS Reduced Sleep score” value (2 hr, baseline 5) was 5, the “MADRS Concentration Difficulties score” value (Day 1, baseline 0) was 0 and the “MADRS Reduced appetite score” value (Day 1, baseline 0) was 0. For the same compound, the “MADRS Suicidal Thoughts score” value (Day 1, baseline 0) was 0, the “BPRS Blunted affect score” value (Day 1, baseline 1) was 1 and the “BPRS Conceptual disorganization score” value (Day 1, baseline 1) was 1. The “BPRS Disorientation score” value (Day 1, baseline 1) was 1, the “BPRS Grandiosity score” value (Day 1, baseline 1) was 1 and the “BPRS Hallucinatory behaviour score” value (Day 1, baseline 1) was 1. The “BPRS Hostility score” value (Day 1, baseline 1) was 1, the “BPRS Mannerisms and Posturing score” value (Day 1, baseline 1) was 1 and the “BPRS Motor retardation score” value (Day 1, baseline 1) was 1. The “BPRS Suspiciousness score” value (Day 1, baseline 1) was 1, the “BPRS Uncooperativeness score” value (Day 1, baseline 1) was 1 and the “BPRS Unusual Thought Content score” value (Day 1, baseline 1) was 1. For the same compound, the “BPRS Excitement score” value (Day 1, baseline 2) was 1, the “MADRS Inability to Feel score” value (Day 1, baseline 3) was 0 and the “MADRS Lassitude score” value (Day 1, baseline 3) was 0. For the same compound, the “MADRS Pessimistic Thoughts score” value (Day 1, baseline 4) was 0, the “MADRS Reported sadness score” value (Day 1, baseline 4) was 0 and the “BPRS Emotional withdrawal score” value (Day 1, baseline 5) was 1. The “MADRS Apparent sadness score” value (Day 1, baseline 5) was 0, the “MADRS Inner Tension score” value (Day 1, baseline 5) was 0 and the “MADRS Reduced Sleep score” value (Day 1, baseline 5) was 0. For the same compound, the “BPRS Depressive Mood score” value (Day 1, baseline 6) was 1, the “BPRS Guilt feelings score” value (Day 1, baseline 6) was 1 and the “BPRS Somatic Concern score” value (Day 1, baseline 6) was 1. The “BPRS Tension score” value (Day 1, baseline 6) was 1, the “BPRS Anxiety score” value (Day 1, baseline 7) was 1 and the “BPRS Anxiety improvement” value (Day 1 vs baseline) was 6. For the same compound, the “BPRS Blunted affect improvement” value (Day 1 vs baseline) was 0, the “BPRS Conceptual disorganization improvement” value (Day 1 vs baseline) was 0 and the “BPRS Depressive Mood improvement” value (Day 1 vs baseline) was 5. For the same compound, the “BPRS Disorientation improvement” value (Day 1 vs baseline) was 0, the “BPRS Emotional withdrawal improvement” value (Day 1 vs baseline) was 4 and the “BPRS Excitement improvement” value (Day 1 vs baseline) was 1. The “BPRS Grandiosity improvement” value (Day 1 vs baseline) was 0, the “BPRS Guilt feelings improvement” value (Day 1 vs baseline) was 5 and the “BPRS Hallucinatory behaviour improvement” value (Day 1 vs baseline) was 0. For the same compound, the “BPRS Hostility improvement” value (Day 1 vs baseline) was 0, the “BPRS Mannerisms and Posturing improvement” value (Day 1 vs baseline) was 0 and the “BPRS Motor retardation improvement” value (Day 1 vs baseline) was 0. For the same compound, the “BPRS Somatic Concern improvement” value (Day 1 vs baseline) was 5, the “BPRS Suspiciousness improvement” value (Day 1 vs baseline) was 0 and the “BPRS Tension improvement” value (Day 1 vs baseline) was 5. For the same compound, the “BPRS Uncooperativeness improvement” value (Day 1 vs baseline) was 0, the “BPRS Unusual Thought Content improvement” value (Day 1 vs baseline) was 0 and the “MADRS Apparent sadness improvement” value (Day 1 vs baseline) was 5. The “MADRS Concentration Difficulties improvement” value (Day 1 vs baseline) was 0, the “MADRS Inability to Feel improvement” value (Day 1 vs baseline) was 3 and the “MADRS Inner Tension improvement” value (Day 1 vs baseline) was 5. The “MADRS Lassitude improvement” value (Day 1 vs baseline) was 3, the “MADRS Pessimistic Thoughts improvement” value (Day 1 vs baseline) was 4 and the “MADRS Reduced Sleep improvement” value (Day 1 vs baseline) was 5. For the same compound, the “MADRS Reduced appetite improvement” value (Day 1 vs baseline) was 0, the “MADRS Reported sadness improvement” value (Day 1 vs baseline) was 4 and the “MADRS Suicidal Thoughts improvement” value (Day 1 vs baseline) was 0. The “BIMF item 2 (I feel rested) score” value (Day 7, Day 0 score 0) was 2, the “BIMF item 19 (getting better at taking care of my baby) score” value (Day 7, Day 0 score 0) was 1 and the “BIMF item 18 (Anxiety or worry often interferes with my mothering ability) score” value (Day 7, Day 0 score 2) was 5. The “BIMF item 16 (I worry about how other people judge me) score” value (Day 7, Day 0 score 3) was 5, the “BIMF item 13 (taking good care of my physical needs) score” value (Day 7, Day 0 score 4) was 5 and the “BIMF item 4 (My baby and I understand each other) score” value (Day 7, Day 0 score 5) was 5. For the same compound, the “BIMF item 5 (able to relax and enjoy time with my baby) score” value (Day 7, Day 0 score 5) was 6, the “BIMF item 9 (getting enough encouragement from other people) score” value (Day 7, Day 0 score 5) was 6 and the “BIMF item 10 (I trust my own feelings (instincts)) score” value (Day 7, Day 0 score 5) was 6. The “BIMF item 11 (a little time each week to do something for myself) score” value (Day 7, Day 0 score 5) was 6, the “BIMF item 15 (My baby and I are getting into a routine) score” value (Day 7, Day 0 score 5) was 6 and the “BIMF item 17 (able to take care of my baby and my other responsibilities) score” value (Day 7, Day 0 score 5) was 5. The “BIMF item 1 (I am a good mother) score” value (Day 7, Day 0 score 6) was 6, the “BIMF item 3 (comfortable with the way I've chosen to feed my baby) score” value (Day 7, Day 0 score 6) was 6 and the “BIMF item 6 (people in my life that I can trust to care for my baby) score” value (Day 7, Day 0 score 6) was 6. For the same compound, the “BIMF item 8 (getting enough adult interaction) score” value (Day 7, Day 0 score 6) was 6, the “BIMF item 12 (taking good care of my baby's physical needs) score” value (Day 7, Day 0 score 6) was 6 and the “BIMF item 14 (good decisions about my baby's health and well being) score” value (Day 7, Day 0 score 6) was 6. The “BIMF item 20 (satisfied with the job I am doing as a new mother) score” value (Day 7, Day 0 score 6) was 5, the “MADRS Concentration Difficulties score” value (Day 7, baseline 0) was 0 and the “MADRS Reduced appetite score” value (Day 7, baseline 0) was 0. The “MADRS Suicidal Thoughts score” value (Day 7, baseline 0) was 0, the “BPRS Blunted affect score” value (Day 7, baseline 1) was 1 and the “BPRS Conceptual disorganization score” value (Day 7, baseline 1) was 1. The “BPRS Disorientation score” value (Day 7, baseline 1) was 1, the “BPRS Grandiosity score” value (Day 7, baseline 1) was 1 and the “BPRS Hallucinatory behaviour score” value (Day 7, baseline 1) was 1. For the same compound, the “BPRS Hostility score” value (Day 7, baseline 1) was 1.
